Here are results for three compounds from ChEMBL document CHEMBL5380794, “Discovery of a Potent and Selective STAT5 PROTAC Degrader with Strong Antitumor Activity In Vivo in Acute Myeloid Leukemia” (J Med Chem, 2023).

Structures are written as SMILES. Activity calls are given as the source filed them. No cut-off for these calls is given here. Some results are limits rather than exact numbers.

Assay [1] concerns the target T1, Signal transducer and activator of transcription 5A (Homo sapiens, UniProt P42229).
T1 sequence (P42229 whole entry): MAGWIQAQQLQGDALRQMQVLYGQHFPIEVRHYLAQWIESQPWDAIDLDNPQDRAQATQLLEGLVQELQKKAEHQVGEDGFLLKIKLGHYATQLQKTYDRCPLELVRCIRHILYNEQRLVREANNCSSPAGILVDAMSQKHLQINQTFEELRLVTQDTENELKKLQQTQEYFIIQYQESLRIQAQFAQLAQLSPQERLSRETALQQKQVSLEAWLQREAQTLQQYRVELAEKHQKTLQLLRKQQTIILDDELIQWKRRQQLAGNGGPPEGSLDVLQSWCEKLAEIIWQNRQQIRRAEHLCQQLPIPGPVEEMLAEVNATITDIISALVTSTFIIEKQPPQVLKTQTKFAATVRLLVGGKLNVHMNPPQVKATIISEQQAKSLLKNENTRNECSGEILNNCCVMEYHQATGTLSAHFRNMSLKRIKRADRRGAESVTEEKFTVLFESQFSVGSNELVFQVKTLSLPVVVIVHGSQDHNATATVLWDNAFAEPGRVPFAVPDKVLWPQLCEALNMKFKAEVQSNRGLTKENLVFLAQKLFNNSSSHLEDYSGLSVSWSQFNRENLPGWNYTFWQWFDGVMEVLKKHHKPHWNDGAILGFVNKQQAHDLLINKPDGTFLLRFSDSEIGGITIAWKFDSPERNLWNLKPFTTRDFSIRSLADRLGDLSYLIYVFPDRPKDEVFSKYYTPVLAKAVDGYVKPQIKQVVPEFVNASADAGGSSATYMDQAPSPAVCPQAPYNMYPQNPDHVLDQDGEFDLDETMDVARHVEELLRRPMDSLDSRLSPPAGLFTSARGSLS
Nature of the assay: Induction of STAT5 degradation in human SKNO-1 cells measured for 18 hrs by Western blot analysis. The format is cell-based. (A western blot detects proteins with antibodies after separation by electrophoresis.)

Assay [2] deals with T2, Signal transducer and activator of transcription 6 (Homo sapiens, UniProt P42226).
T2 sequence (P42226 whole entry): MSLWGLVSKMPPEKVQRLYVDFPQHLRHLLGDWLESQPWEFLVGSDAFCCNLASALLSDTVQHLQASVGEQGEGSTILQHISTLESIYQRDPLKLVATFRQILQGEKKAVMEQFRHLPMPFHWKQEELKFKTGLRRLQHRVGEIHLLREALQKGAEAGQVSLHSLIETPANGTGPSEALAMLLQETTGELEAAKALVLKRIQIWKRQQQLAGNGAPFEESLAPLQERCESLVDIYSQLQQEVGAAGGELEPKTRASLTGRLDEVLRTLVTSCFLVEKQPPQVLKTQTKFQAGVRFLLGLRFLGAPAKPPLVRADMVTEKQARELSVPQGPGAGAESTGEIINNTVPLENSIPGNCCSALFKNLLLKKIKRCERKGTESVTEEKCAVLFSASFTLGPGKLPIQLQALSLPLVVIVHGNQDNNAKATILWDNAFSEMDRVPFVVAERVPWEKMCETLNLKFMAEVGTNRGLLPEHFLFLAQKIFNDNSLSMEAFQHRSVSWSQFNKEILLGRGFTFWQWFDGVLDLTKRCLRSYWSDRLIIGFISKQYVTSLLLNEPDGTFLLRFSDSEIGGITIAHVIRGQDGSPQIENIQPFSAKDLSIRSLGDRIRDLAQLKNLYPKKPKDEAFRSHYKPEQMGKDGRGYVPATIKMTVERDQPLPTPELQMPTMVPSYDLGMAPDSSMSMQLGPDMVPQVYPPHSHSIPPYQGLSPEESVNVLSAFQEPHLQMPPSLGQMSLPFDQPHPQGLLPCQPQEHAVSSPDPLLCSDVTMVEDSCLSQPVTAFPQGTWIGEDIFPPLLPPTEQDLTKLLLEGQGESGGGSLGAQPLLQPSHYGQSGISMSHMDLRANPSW
Nature of the assay: Induction of STAT6 degradation in human SKNO-1 cells measured for 18 hrs by Western blot analysis. The format is cell-based. The following applies: read-out: DC50.

For assay [3], the target named is T3, Signal transducer and activator of transcription 5A (Homo sapiens) (UniProt P42229).
T3 sequence (whole entry): T1 sequence (P42229 whole entry)
Nature of the assay: Induction of STAT5 degradation in human SKNO-1 cells assessed as maximal degradation at 0.05 to 5 uM measured for 18 hrs by Western blot analysis relative to control. The format is cell-based. Particulars: dose 0.05-5 µM.

For assay [4], the species on record is Homo sapiens. As to the kind of experiment: Selectivity ratio of DC50 for induction of STAT5 degradation in human SKNO-1 cells to DC50 for STAT6 degradation in human SKNO-1 cells. The format is cell-based.
Assay [5] deals with Protein cereblon (Homo sapiens, UniProt Q96SW2). As to the kind of experiment: Binding affinity to GST-tagged wild type human CRBN assessed as inhibition constant by TR-FRET assay. On the technique in general: TR-FRET usually uses a lanthanide donor and a delayed reading to cut background.
Protein cereblon, sequence (Q96SW2 whole entry): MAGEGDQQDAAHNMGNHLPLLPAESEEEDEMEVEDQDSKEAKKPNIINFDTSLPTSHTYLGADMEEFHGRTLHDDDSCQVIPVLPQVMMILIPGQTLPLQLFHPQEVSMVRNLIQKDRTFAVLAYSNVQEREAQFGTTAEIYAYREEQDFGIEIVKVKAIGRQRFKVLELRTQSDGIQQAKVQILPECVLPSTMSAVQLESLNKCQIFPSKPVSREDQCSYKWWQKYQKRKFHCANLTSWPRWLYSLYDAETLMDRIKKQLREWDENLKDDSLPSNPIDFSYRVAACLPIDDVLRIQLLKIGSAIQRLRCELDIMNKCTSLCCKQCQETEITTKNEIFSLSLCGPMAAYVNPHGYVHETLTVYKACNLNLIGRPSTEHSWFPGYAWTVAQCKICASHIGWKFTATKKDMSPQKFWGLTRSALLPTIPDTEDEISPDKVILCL
The subject of assay [6] is SKNO-1. As to the kind of experiment: Effect on STAT1 level in human SKNO-1 cells upto 5 uM measured for 18 hrs by Western blot analysis. It is filed as functional, cell-based.
Assay [7] concerns SKNO-1. Nature of the assay: Effect on STAT2 level in human SKNO-1 cells upto 5 uM measured for 18 hrs by Western blot analysis. It is filed as functional, cell-based.
In assay [8] the test system is SKNO-1. As to the kind of experiment: Effect on STAT3 level in human SKNO-1 cells upto 5 uM measured for 18 hrs by Western blot analysis. It is filed as functional, cell-based.
The subject of assay [9] is SKNO-1. As to the kind of experiment: Effect on STAT4 level in human SKNO-1 cells upto 5 uM measured for 18 hrs by Western blot analysis. It is filed as functional, cell-based.
The test system of assay [10] is SKNO-1. As to the kind of experiment: Effect on STAT6 level in human SKNO-1 cells upto 5 uM measured for 18 hrs by Western blot analysis. It is filed as functional, cell-based.
Assay [11] deals with T3, Signal transducer and activator of transcription 5A (Homo sapiens). Nature of the assay: Inhibition of STAT5 phosphorylation in human MV4-11 cells assessed as reduction in […] phosphorylation at Y694 residue at 0.2 uM measured for 6 hrs by Western blot analysis. The format is cell-based.
Assay [12] has the same target. As to the kind of experiment: Inhibition of STAT5 phosphorylation in human MV4-11 cells assessed as reduction in STAT5 level at 1 uM measured for 6 hrs by Western blot analysis. The format is cell-based.
In assay [13] the test system is MV4-11. Nature of the assay: Effect on STAT1 level in human MV4-11 cells upto 5 uM measured for 18 hrs by Western blot analysis. It is filed as functional, cell-based.
Assay [14] has as its system MV4-11. Nature of the assay: Effect on STAT2 level in human MV4-11 cells upto 5 uM measured for 18 hrs by Western blot analysis. The format is functional, cell-based.
In assay [15] the test system is MV4-11. As to the kind of experiment: Effect on STAT3 level in human MV4-11 cells upto 5 uM measured for 18 hrs by Western blot analysis. It is filed as functional, cell-based.
Assay [16] relates to MV4-11. As to the kind of experiment: Effect on STAT6 level in human MV4-11 cells upto 5 uM measured for 18 hrs by Western blot analysis. It is filed as functional, cell-based.
Assay [17] deals with T1, Signal transducer and activator of transcription 5A. As to the kind of experiment: Binding affinity to N-terminal 6his-tagged human STAT5A (136 to 705 residues) expressed in Escherichia coli BL21-DE3 rosetta cells assessed as inhibition constant by FP assay.
Assay [18] concerns the target T4, Signal transducer and activator of transcription 5B (Homo sapiens, UniProt P51692).
T4 sequence (P51692 whole entry): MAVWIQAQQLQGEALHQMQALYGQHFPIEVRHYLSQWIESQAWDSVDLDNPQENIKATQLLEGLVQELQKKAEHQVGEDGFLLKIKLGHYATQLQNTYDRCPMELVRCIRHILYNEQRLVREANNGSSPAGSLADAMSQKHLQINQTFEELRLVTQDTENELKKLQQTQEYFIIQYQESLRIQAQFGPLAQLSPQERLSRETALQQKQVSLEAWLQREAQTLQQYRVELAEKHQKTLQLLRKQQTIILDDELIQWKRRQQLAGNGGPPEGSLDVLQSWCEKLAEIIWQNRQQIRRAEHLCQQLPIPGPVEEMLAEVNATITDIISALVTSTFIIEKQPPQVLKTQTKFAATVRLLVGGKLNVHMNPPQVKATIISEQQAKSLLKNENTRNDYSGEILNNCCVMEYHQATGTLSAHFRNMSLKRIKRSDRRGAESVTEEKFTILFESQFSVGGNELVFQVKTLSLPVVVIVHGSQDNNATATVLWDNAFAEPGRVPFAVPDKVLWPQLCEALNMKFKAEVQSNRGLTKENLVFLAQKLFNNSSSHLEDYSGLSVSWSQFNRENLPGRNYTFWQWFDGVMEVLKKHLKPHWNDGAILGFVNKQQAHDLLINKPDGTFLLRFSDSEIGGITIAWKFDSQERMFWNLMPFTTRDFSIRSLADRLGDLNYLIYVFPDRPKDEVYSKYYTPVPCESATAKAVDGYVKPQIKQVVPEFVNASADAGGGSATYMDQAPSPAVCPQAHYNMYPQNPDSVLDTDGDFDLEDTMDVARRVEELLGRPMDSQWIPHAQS
Nature of the assay: Binding affinity to STAT5B (unknown origin) assessed as inhibition constant by FP assay.

As to `CC(C)(C)[C@H](NC(=O)c1cc2cc(C(F)(F)P(=O)(O)O)ccc2s1)C(=O)N1CCC[C@H]1C(=O)N(CCC(=O)NCCCC#Cc1cccc2c1CN(C1CCC(=O)NC1=O)C2=O)c1ccc(Br)cc1` (some centres undefined), the values for the DC50 in assay [1] and in [2] were 0.23 µM and more than 5 µM, respectively. Besides, the Emax in assay [3] was more than 95%. For the same compound, in [4], the Ratio was more than 20.

Turning to `CN(CCCC#Cc1cccc2c1CN(C1CCC(=O)N(C)C1=O)C2=O)C(=O)CCN(C(=O)[C@@H]1CCCN1C(=O)[C@@H](NC(=O)c1cc2cc(C(F)(F)P(=O)(O)O)ccc2s1)C(C)(C)C)c1ccc(-c2nccs2)cc1` (some centres undefined), in assay [5], the Ki was more than 5 µM. The result in assay [6], in assay [7], in [8], in [9], in assay [10] and in [13] was inactive. Moreover, the result in assay [14], in assay [15] and in [16] was inactive. The inhibition entry in assay [11] and in [12] was “inactive” in each case.

On to `CN(C)C(=O)CCN(C(=O)[C@@H]1CCCN1C(=O)[C@@H](NC(=O)c1cc2cc(C(F)(F)P(=O)(O)O)ccc2s1)C(C)(C)C)c1ccc(-c2nccs2)cc1`, for which the Ki in assay [17] and in assay [18] was 1 µM in each case. For the same compound, the outcome in assay [6], in [7], in assay [8], in assay [9], in assay [10] and in assay [13] was inactive. Also, the result in assay [14], in assay [15] and in assay [16] was inactive. Further, the inhibition result in assay [11] and in assay [12] was “inactive” in each case.

The DC50 is the concentration giving 50% degradation. A word on the Emax: it is the size of the effect at its maximum, as opposed to the concentration needed. In general, Ki refers to the equilibrium dissociation constant of an inhibitor or competing ligand from its target.
